Entries after “also recorded” stand apart in the source; their conditions may differ.
What was measured:
[1] = Half-life and duration of action; assay type: in vivo; conditions: 'here we report'
[2] = tested on: D2 and D3 molecular receptors; conditions: cited from earlier work
[3] = tested on: restless legs syndrome patients; assay: Safety / adverse events, tolerability, augmentation in 12-week open label trial; assay type: in vivo
Description: Apart from levodopa, patients had to stop taking any medication known to have positive or negative effect on RLS two weeks before baseline (i.e., other dopamine agonists, benzodiazepines, opioids or other psychotropic agents). Patients who were on levodopa therapy were allowed to either stop levodopa prior to study entry or to continue, taper or discontinue levodopa during the study. To prevent well known peripheral dopaminergic side-effects such as nausea, vomiting, vertigo and arterial hypotension domperidone (not available in the United States) was comedicated initially and also tapered if possible. […] Neurological case history, examination, electrocardiogramm, chest x-ray and polysomnography were performed to ensure that selection criteria were fulfilled. A two-night PSG (including one night of adaptation) was performed to evaluate the diagnosis and inclusion/exclusion criteria regardless if patients were on or off levodopa. After a 12-week treatment period patients were studied again for one night in the sleep laboratory. Subjective ratings were obtained at baseline, week 4, week 8 and at the endpoint after 12 weeks. In addition patients were monitored by phone calls to note any adverse events and to determine whether to increase the dosage of the study drug, to decrease levodopa and to decrease domperidone. The time schedule of phone calls was variable and the frequency mostly dependent on the presence of simultaneous levodopa therapy. Dosing. […] Medication was taken 2 hours prior to bedtime. Initial therapy consisted of one 0.5 mg tablet. […] The increased dose could be decreased again if necessary. […] Subjects who were pretreated with levodopa were asked to decrease levodopa simultaneously if possible. Physician's rating. The physician rated the severity of illness at baseline (normal to extremely ill), the global improvement (general condition very much worse to very much better) and the side effects by use of the Clinical Global Impressions (CGI). Safety. Safety of Cabergoline was assessed to the type and frequency of adverse event, clinically significant changes in laboratory data or ECG and premature discontinuation of study participation. Adverse events were classified as serious versus nonserious and characterized by intensity, relationship to drug treatment, frequency, course and therapeutic intervention.

[4] = tested on: restless legs syndrome patients; assay: as above; assay type: in vivo; conditions: 6 months or more after treatment, compared with L-Dopa
[5] = tested on: restless legs syndrome patients; assay: Patients' subjective ratings (PGI, RLS severity, sleep satisfaction, sleep diary, quality of life) in 12-week open label trial; assay type: in vivo
Description: Efficacy was assessed by polysomnography and subjective ratings.
(§1) Following a 2-week baseline period, all patients were treated with cabergoline in an open trial for 12 weeks. Apart from levodopa, patients had to stop taking any medication known to have positive or negative effect on RLS two weeks before baseline (i.e., other dopamine agonists, benzodiazepines, opioids or other psychotropic agents). Patients who were on levodopa therapy were allowed to either stop levodopa prior to study entry or to continue, taper or discontinue levodopa during the study. To prevent well known peripheral dopaminergic side-effects such as nausea, vomiting, vertigo and arterial hypotension domperidone (not available in the United States) was comedicated initially and also tapered if possible. […] Neurological case history, examination, electrocardiogramm, chest x-ray and polysomnography were performed to ensure that selection criteria were fulfilled. A two-night PSG (including one night of adaptation) was performed to evaluate the diagnosis and inclusion/exclusion criteria regardless if patients were on or off levodopa. After a 12-week treatment period patients were studied again for one night in the sleep laboratory. Subjective ratings were obtained at baseline, week 4, week 8 and at the endpoint after 12 weeks. In addition patients were monitored by phone calls to note any adverse events and to determine whether to increase the dosage of the study drug, to decrease levodopa and to decrease domperidone. The time schedule of phone calls was variable and the frequency mostly dependent on the presence of simultaneous levodopa therapy.
Dosing. Study medication was available in tablets containing 0.5 mg, 1 mg or 2 mg Cabergoline (Cabaseril®, Pharmacia & Upjohn, Erlangen, Germany). Medication was taken 2 hours prior to bedtime. Initial therapy consisted of one 0.5 mg tablet. […] The increased dose could be decreased again if necessary. All patients were initially comedicated with domperidone 20 mg t.i.d. which could be tapered and stopped if possible. Subjects who were pretreated with levodopa were asked to decrease levodopa simultaneously if possible.
Subjective ratings. After each night of recording and at each visit at week 2 and 4, patients rated the severity of illness (normal to extremely ill), the therapeutic effects by rating their global improvements by use of the Patients Global Impressions (general condition very much worse to very much better), the severity of RLS symptoms during the time of falling asleep, during the night and during the day (scale: 0=not present to 10=very strong) and sleep satisfaction (very unsatisfied to very satisfied). In addition patients rated their quality of life, concerning well being and complaints during the previous week, using modified 50-mm Hamburger Visual Analogue Scale. Patients also filled in a sleep diary at each study visit rating the following symptoms: global assessment of sleep (very bad to very good night), sleep latency, sleep time, frequency of awakenings and urge to move the legs at time falling asleep, during the night and during the day (scale: 0=not present to 10=very strong).
(§2) Statistical analysis. Statistical evaluation was performed as intent-to-treat analysis using descriptive statistics.

D1 family of receptors = conditions: cited from earlier work
[6] = tested on: restless legs syndrome patients; assay: Physician's rating (CGI) in 12-week open label trial; assay type: in vivo
Description: as §1
Physician's rating. The physician rated the severity of illness at baseline (normal to extremely ill), the global improvement (general condition very much worse to very much better) and the side effects by use of the Clinical Global Impressions (CGI). Safety. Safety of Cabergoline was assessed to the type and frequency of adverse event, clinically significant changes in laboratory data or ECG and premature discontinuation of study participation. Adverse events were classified as serious versus nonserious and characterized by intensity, relationship to drug treatment, frequency, course and therapeutic intervention.
as §2

[7] = of 9 patients, under cabergoline

In the case of `C=CCN1C[C@H](C(=O)N(CCCN(C)C)C(=O)NCC)C[C@@H]2c3cccc4[nH]cc(c34)C[C@H]21` [Cabergoline, 1((6-allylergolin-8β-yl) -carbony.)-1-(3-(dimethylamino)propyl)-3-ethylurea], the “duration of action (may last)” value [1] is given as at most 65 h, the “D2 versus D3 binding (in words)” value [2] is given as “greater D2 over D3 binding” and the “peripheral or other dopaminergic side effects” value ([3]; 4 mg cabergoline monotherapy) is given as “did not see peripheral or other dopaminergic side effects”. For the same compound, the “total adverse events probably related to study drug” value ([3]; 9 patients, 12 weeks) was 8, the augmentation under cabergoline ([3]; 12-week treatment) was “lower incidence; also recorded: did not observe augmentation” and the “duration and intensity of adverse events” value ([3]; all adverse events) was “temporary and considered to be mild to moderate”. The “reversal of levodopa-evoked augmentation of RLS symptoms” value ([3]; all patients) was “reversible”, the “discontinuation of levodopa during study” value ([3]; all patients initially on levodopa) was “discontinued levodopa treatment” and the “tolerability (in words)” value ([3]; domperidone stopped in all patients) was “excellent tolerability; also recorded: good tolerability”. The “changes in laboratory data or ECG” value ([3]; in vivo) was “No significant changes”, the “serious side effects / serious adverse events” value ([3]; in vivo) was “no serious side effects; also recorded: no serious adverse events” and the “withdrawal / discontinuation of patients” value ([3]; in vivo) was “no patient withdrew; also recorded: no patient discontinued”. For the same compound, the “patients with adverse events probably related to study drug” value ([3]; of 9 patients) was 5 patients, the diarrhea ([3]; probably related side effects) was 1 and the dizziness ([3]; probably related side effects) was 2. It also gave a headache ([3]; probably related side effects) of 2, a vertigo ([3]; probably related side effects) of 2 and a nausea ([3]; probably related, led to temporary dose reduction) of 1 patient. For the same compound, the “tolerance to treatment (in words)” value [4] was “low tolerance; also recorded: lack of tolerance”, the “subjective and objective sleep parameters (in words)” value ([5]; 12-week treatment, 1 to 4 mg (mean 2.1 mg)) was “marked improvement” and the “relief of RLS symptoms (in words)” value ([5]; all patients, 12 weeks, 1 to 4 mg single evening dose) was “significant relief or became free of RLS symptoms; also recorded: complete or significant relief of RLS symptoms”. The “times patients had to get up per night (sleep diary)” value ([5]; endpoint, baseline 2.1) was 0.6 times per night, the “duration of efficacy in RLS therapy” value ([5]; human, in vivo) was 24 h and the “markedly satisfied with sleep, number of patients” value ([5]; of 9 patients, endpoint) was 4. The “moderately satisfied with sleep, number of patients” value ([5]; of 9 patients, endpoint) was 1, the “moderately unsatisfied with sleep, number of patients” value ([5]; of 9 patients, endpoint) was 2 and the “severity of illness rated borderline (PGI), number of patients” value ([5]; of 9 patients, endpoint) was 2. The “severity of illness rated moderately ill (PGI), number of patients” value ([5]; of 9 patients, endpoint) was “two”, the “severity of illness rated normal (PGI), number of patients” value ([5]; of 9 patients, endpoint, at baseline extremely (2), very (4) or markedly (3) ill) was 5 and the “very satisfied with sleep, number of patients” value ([5]; of 9 patients, endpoint, baseline very (1), markedly (6) or moderately (2) unsatisfied) was 2. The “general condition much better (PGI), number of patients” value [5, 7] was 3, the “general condition very much better (PGI), number of patients” value [5, 7] was 6 and the “RLS severity during the time of falling asleep” value ([5]; scale 0=not present to 10=very strong, last week, baseline 4.9±4.3) was 0.4±0.7. The “RLS severity during the day” value ([5]; scale 0=not present to 10=very strong, last week, baseline 5.1±3.4) was 0.8±1.7, the “RLS severity during the night” value ([5]; scale 0=not present to 10=very strong, last week, baseline 6.7±2.7) was 1.6±2.6 and the “global quality of the previous night (sleep diary)” value ([5]; scale zero (very bad) to 10 (very good), endpoint, baseline 3.1) was 6.9. For the same compound, the “efficacy in restless legs syndrome (in words)” value ([5]; single evening dose, incl. severe RLS and levodopa augmentation) was “effective and well tolerated; also recorded: very effective and well tolerated”, the “quality of life (Hamburger Visual Analogue Scale), in words” value ([5]; vs. baseline conditions) was “much better” and the “D1 family activity (in words)” value (D1 family of receptors) was “partial D1 activity; also recorded: partial DI family activity”. The “global improvement (physician's rating, in words)” value ([6]; in vivo) was “significant global improvement”, the “general condition minimally better (physician's rating), number of patients” value ([6]; of 9 patients) was 1 and the “general condition much better (physician's rating), number of patients” value ([6]; of 9 patients) was 3. The “general condition very much better (physician's rating), number of patients” value ([6]; of 9 patients) was 5.

Source: patent US6114326A, “Use of cabergoline in the treatment of restless legs syndrome” (priority 1999, dated 2000)
